Test results published in publication PMC10874388, “Cyclic peptides discriminate BCL-2 and its clinical mutants from BCL-XL by engaging a single-residue discrepancy” (Nature Communications, 2024).
Values joined by “and” are separate entries in the source; they are usually repeats but may differ in a detail not shown here. Identical values can stand only once.

Key:
Format in all cases: cell-based
[1] = system: A549 cells overexpressing BCL-2 WT; assay: Cell viability assay, A549 stably overexpressing BCL-2 WT; settings: for luminescence reading (raw, replicate wells) / luminescence reading, everage / inhibition rate: BCL2-WT A549; for luminescence reading, everage: mean of 6 wells
Description: (§1) Cell viability was measured using CellTiter-Glo® 2.0 Reagent (Promega, G9242). […] After different inhibitors were added into serum-free medium and cultured for 4 h (RS4:11 for 6 h), FBS were supplemented to 10% and then incubated totally for 24 h or 48 h. Finally, the IC50 values were calculated based on measurements using a microplate reader (Thermo, Varioskan LUX). Statistical analysis was performed using software GraphPad Prism 7.0.
(§2) Lentivirus packaging vectors pMDLg/pRRE, pRSV-Rev, and pVSV-G were obtained from Prof. Han Jiahuai’s lab (Xiamen University). Lentiviruses were produced using 3rd-generation lentivirus packaging plasmids transiently transfected into HEK293T cells with the constructs of interest using 0.25 M CaCl2. Media was changed after 16 h, and supernatants containing infectious virus particles were harvested 24 h later. A second viral harvest was made following a further 24 h incubation with fresh media. Virus containing supernatant was filtered through a […], and stored at 4 °C or −80 °C until being used. Typically, A549 cells were seeded into 10 cm cell culture dishes at 4 ~ 8 × 10^5 cells/cm^2. An equivalent volume of virus containing culture medium was added along with polybrene (Sigma) to a final concentration of 10 µg/mL. Cells were incubated at 37 °C for 20 h, before they were washed and resuspended in fresh culture media. The expression level of BCL-2 was measured by qPCR and western blot methods.

[2] = system: Daudi cells; assay: Cell viability assay (CellTiter-Glo), Daudi; settings: for IC50: 48 h treatment, CellTiter-Glo; for inhibition relative to 0 uM control, replicates / raw viability signal, replicates: listed as ABT199
Outline: (§3)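 Compounds added in serum-free medium for 4 h (RS4:11: 6 h), then FBS brought to 10% and incubation continued to 24 h or 48 h total at 37 °C, 5% CO2. Viability by CellTiter-Glo 2.0 luminescence; IC50 calculated.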

[3] = system: Jurkat cells; assay: Cell viability assay (CellTiter-Glo), Jurkat; settings: for inhibition relative to 0 uM control, replicates / raw viability signal, replicates: listed as ABT199
Outline: as §3

[4] = system: A549 cells overexpressing BCL-2 G101V; assay: Cell viability assay, A549 stably overexpressing BCL-2 G101V; settings: BCL2/G101V A549; for luminescence reading, everage: mean of 6 wells; for inhibition rate: replicate wells
Description: as §1, §2

CC1(C)CCC(CN2CCN(c3ccc(C(=O)NS(=O)(=O)c4ccc(NCC5CCOCC5)c([N+](=O)[O-])c4)c(Oc4cnc5[nH]ccc5c4)c3)CC2)=C(c2ccc(Cl)cc2)C1 [venetoclax]
luminescence reading (raw, replicate wells) ([1]; ABT-199 0.390625 uM): 644100 and 629100 and 637900 and 643500 and 647000 and 655800 | luminescence reading, everage ([1]; ABT-199 0.390625 uM): 642900 | inhibition rate ([1]; ABT-199 0.390625 uM, replicate wells): -3.29% and -4.73% and -5.65% and -6% and -8% and -5.55% | luminescence reading (raw, replicate wells) ([1]; ABT-199 0.78125 uM): 567400 and 598600 and 586100 and 654900 and 608300 and 579900 | luminescence reading, everage ([1]; ABT-199 0.78125 uM): 599200 | inhibition rate ([1]; ABT-199 0.78125 uM, replicate wells): 1.72% and 3.77% and -7.52% and 0.129% and 5% and 1.62% | luminescence reading (raw, replicate wells) ([1]; ABT-199 1.5625 uM): 298800 and 328200 and 290000 and 313400 and 302200 and 296200 | luminescence reading, everage ([1]; ABT-199 1.5625 uM): 304800 | inhibition rate ([1]; ABT-199 1.5625 uM, replicate wells): 52% and 49% and 50% and 51% | luminescence reading (raw, replicate wells) ([1]; ABT-199 3.125 uM): 264200 and 271400 and 265500 and 281900 and 276200 and 275000 | luminescence reading, everage ([1]; ABT-199 3.125 uM): 272367 | inhibition rate ([1]; ABT-199 3.125 uM, replicate wells): 56% and 54% | luminescence reading (raw, replicate wells) ([1]; ABT-199 6.25 uM): 239200 and 242900 and 250800 and 260000 and 262000 and 251900 | luminescence reading, everage ([1]; ABT-199 6.25 uM): 251133 | inhibition rate ([1]; ABT-199 6.25 uM, replicate wells): 59% and 57% | luminescence reading (raw, replicate wells) ([1]; ABT-199 12.5 uM): 192300 and 201400 and 189800 and 189400 and 190500 and 194300 | luminescence reading, everage ([1]; ABT-199 12.5 uM): 192950 | inhibition rate ([1]; ABT-199 12.5 uM, replicate wells): 69% and 68% | luminescence reading (raw, replicate wells) ([1]; ABT-199 25 uM): 124100 and 129200 and 123800 and 128900 and 121100 and 127700 | luminescence reading, everage ([1]; ABT-199 25 uM): 125800 | inhibition rate ([1]; ABT-199 25 uM, replicate wells): 80% | luminescence reading (raw, replicate wells) ([1]; ABT-199 50 uM): 61440 and 62870 and 63340 and 62270 and 63280 and 66020 | luminescence reading, everage ([1]; ABT-199 50 uM): 63203 | inhibition rate ([1]; ABT-199 50 uM, replicate wells): 89% | luminescence reading (raw, replicate wells) ([1]; ABT-199 100 uM): 19300 and 21810 and 21770 and 21930 and 21040 and 20180 | luminescence reading, everage ([1]; ABT-199 100 uM): 21005 | inhibition rate ([1]; ABT-199 100 uM, replicate wells): 97% | luminescence reading (raw, replicate wells) ([1]; ABT-199 200 uM): 4077 and 3911 and 4092 and 4449 and 4173 and 4465 | luminescence reading, everage ([1]; ABT-199 200 uM): 4195 | inhibition at 1.5625 µM ([1]; Homo sapiens, A549, BCL2-WT A549, ABT-199 1.5625 uM, replicate wells, read-out: inhibition rate): 46% | inhibition at 3.125 µM ([1]; Homo sapiens, A549, BCL2-WT A549, ABT-199 3.125 uM, replicate wells, read-out: inhibition rate): 55% | inhibition at 6.25 µM ([1]; Homo sapiens, A549, BCL2-WT A549, ABT-199 6.25 uM, replicate wells, read-out: inhibition rate): 60% | inhibition at 12.5 µM ([1]; Homo sapiens, A549, BCL2-WT A549, ABT-199 12.5 uM, replicate wells, read-out: inhibition rate): 67% | inhibition at 25 µM ([1]; Homo sapiens, A549, BCL2-WT A549, ABT-199 25 uM, replicate wells, read-out: inhibition rate): 79% | inhibition at 50 µM ([1]; Homo sapiens, A549, BCL2-WT A549, ABT-199 50 uM, replicate wells, read-out: inhibition rate): 90% | inhibition at 100 µM ([1]; Homo sapiens, A549, BCL2-WT A549, ABT-199 100 uM, replicate wells, read-out: inhibition rate): 96% | inhibition at 200 µM ([1]; Homo sapiens, A549, BCL2-WT A549, ABT-199 200 uM, replicate wells, read-out: inhibition rate): 99% | IC50 ([1]; Homo sapiens, A549, 48 h, CellTiter-Glo, n = 6): 2.5 ± 0.2 µM | IC50 [2]: 9.1 ± 0.4 µM | inhibition relative to 0 uM control, replicates ([2]; Daudi, 0.78125 uM): -8% and 9% and -10% and 0.517% and -5.68% and 2.67% | raw viability signal, replicates ([2]; Daudi, 0.78125 uM): 1603 and 1350 and 1637 and 1476 and 1568 and 1444 | inhibition relative to 0 uM control, replicates ([2]; Daudi, 1.5625 uM): 2.61% and -1.71% and 13% and -2.52% and -11% and 4.63% | raw viability signal, replicates ([2]; Daudi, 1.5625 uM): 1445 and 1509 and 1291 and 1521 and 1645 and 1415 | inhibition relative to 0 uM control, replicates ([2]; Daudi, 3.125 uM): 2% and 16% (2×) and 13% and 9% and 19% | raw viability signal, replicates ([2]; Daudi, 3.125 uM): 1454 and 1252 and 1287 and 1241 and 1349 and 1200 | inhibition relative to 0 uM control, replicates ([2]; Daudi, 6.25 uM): 29% and 42% and 9% and 30% and 46% and 26% | raw viability signal, replicates ([2]; Daudi, 6.25 uM): 1056 and 861.7 and 1353 and 1036 and 800.8 and 1094 | inhibition relative to 0 uM control, replicates ([2]; Daudi, 12.5 uM): 77% and 57% and 48% and 71% and 73% and 72% | raw viability signal, replicates ([2]; Daudi, 12.5 uM): 335.5 and 640.9 and 766.9 and 436.4 and 400.1 and 410.0 | inhibition relative to 0 uM control, replicates ([2]; Daudi, 25 uM): 93% (2×) and 70% and 85% and 88% and 97% | raw viability signal, replicates ([2]; Daudi, 25 uM): 106.6 and 104.3 and 439.1 and 228.2 and 183.6 and 51.32 | IC50 ([2]; Homo sapiens, Daudi, 48 h): 9.12 µM | inhibition relative to 0 uM control, replicates ([3]; 0.09375 uM): 3.52% and 1.46% and 6% and 5% (2×) and 2.56% | raw viability signal, replicates ([3]; 0.09375 uM): 1920000 and 1961000 and 1868000 and 1890000 and 1939000 and 1891000 | inhibition relative to 0 uM control, replicates ([3]; 0.1875 uM): 17% and 21% (2×) and 20% (2×) | raw viability signal, replicates ([3]; 0.1875 uM): 1613000 and 1643000 and 1579000 and 1582000 and 1598000 and 1590000 | inhibition relative to 0 uM control, replicates ([3]; 0.375 uM): 36% and 31% and 32% and 27% and 22% and 17% | raw viability signal, replicates ([3]; 0.375 uM): 1276000 and 1374000 and 1347000 and 1456000 and 1547000 and 1657000 | inhibition relative to 0 uM control, replicates ([3]; 0.75 uM): 38% and 41% and 36% and 33% and 32% | raw viability signal, replicates ([3]; 0.75 uM): 1124000 and 1225000 and 1165000 and 1278000 and 1326000 and 1356000 | inhibition relative to 0 uM control, replicates ([3]; 1.5 uM): 52% and 54% (2×) and 53% and 47% | raw viability signal, replicates ([3]; 1.5 uM): 903200 and 948100 and 908900 and 906300 and 926500 and 1061000 | inhibition relative to 0 uM control, replicates ([3]; 3 uM): 86% (3×) and 87% (2×) | raw viability signal, replicates ([3]; 3 uM): 248500 and 275900 and 263600 and 270200 and 263000 and 279700 | inhibition at 0.1875 µM ([3]; Homo sapiens, 0.1875 uM, read-out: inhibition relative to 0 uM control, replicates): 19% | inhibition at 0.75 µM ([3]; Homo sapiens, 0.75 uM, read-out: inhibition relative to 0 uM control, replicates): 44% | inhibition at 1.5 µM ([3]; Homo sapiens, 1.5 uM, read-out: inhibition relative to 0 uM control, replicates): 55% | inhibition at 3 µM ([3]; Homo sapiens, 3 uM, read-out: inhibition relative to 0 uM control, replicates): 88% | IC50 ([3]; Homo sapiens, 48 h treatment, CellTiter-Glo): 1.2 ± 0.2 µM | luminescence reading (raw, replicate wells) ([4]; ABT-199 0.390625 uM): 626600 and 647800 and 649100 and 614500 and 623500 and 619300 | luminescence reading, everage ([4]; ABT-199 0.390625 uM): 630133 | inhibition rate ([4]; ABT-199 0.390625 uM): -3% and -6.36% and -6.57% and -0.889% and -2.37% and -1.68% | luminescence reading (raw, replicate wells) ([4]; ABT-199 0.78125 uM): 583300 and 568200 and 597700 and 560800 and 571600 and 528100 | luminescence reading, everage ([4]; ABT-199 0.78125 uM): 568283 | inhibition rate ([4]; ABT-199 0.78125 uM): 4.23% and 7% and 1.87% and 8% and 6% and 13% | luminescence reading (raw, replicate wells) ([4]; ABT-199 1.5625 uM): 398200 and 407800 and 413600 and 450500 and 408700 and 467800 | luminescence reading, everage ([4]; ABT-199 1.5625 uM): 424433 | inhibition rate ([4]; ABT-199 1.5625 uM): 33% and 32% and 26% and 23% | luminescence reading (raw, replicate wells) ([4]; ABT-199 3.125 uM): 271900 and 280300 and 266200 and 296500 and 277300 and 344500 | luminescence reading, everage ([4]; ABT-199 3.125 uM): 289450 | inhibition rate ([4]; ABT-199 3.125 uM): 54% and 56% and 51% and 43% | luminescence reading (raw, replicate wells) ([4]; ABT-199 6.25 uM): 262900 and 273800 and 273900 and 296400 and 264200 and 315700
